The record followed here is ChEMBL document CHEMBL1148617, “Design, synthesis, and structure-activity relationships of 1-,3-,8-, and 9-substituted-9-deazaxanthines at the human A2B adenosine receptor” (J Med Chem, 2006).

T1 sequence (P29274 whole entry): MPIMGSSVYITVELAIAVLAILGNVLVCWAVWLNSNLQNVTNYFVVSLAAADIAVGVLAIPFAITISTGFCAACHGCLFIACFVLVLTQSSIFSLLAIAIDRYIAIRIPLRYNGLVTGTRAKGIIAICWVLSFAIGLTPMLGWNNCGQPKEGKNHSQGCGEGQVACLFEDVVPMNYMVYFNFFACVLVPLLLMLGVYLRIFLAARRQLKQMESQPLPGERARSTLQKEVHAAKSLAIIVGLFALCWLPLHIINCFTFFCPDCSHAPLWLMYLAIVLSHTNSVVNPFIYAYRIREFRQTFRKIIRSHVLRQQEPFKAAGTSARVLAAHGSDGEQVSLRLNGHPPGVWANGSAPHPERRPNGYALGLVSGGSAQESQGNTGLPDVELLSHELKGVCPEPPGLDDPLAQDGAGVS

The first assay addresses T1, Adenosine receptor A2a (Homo sapiens, UniProt P29274). As to the kind of experiment: Displacement of [3H]ZM-241385 from recombinant human adenosine A2A receptor expressed in HeLa cells at 0.1 uM. For orientation: In a radioligand displacement assay an active substance lowers the binding of a labelled ligand.
The term inhibition denotes the change of the read-out against control, counted positive when it falls. As to `CCCn1c(=O)c2[nH]c(-c3ccc(OCC(=O)Nc4ncccc4O)cc3)cc2n(CCC)c1=O`, the inhibition was determined as 32%.

Turning to `CCOC(=O)COc1ccc(-c2cc3c([nH]2)c(=O)n(C)c(=O)n3C)cc1OC`, the inhibition is 18%.

On to `CCCn1c(=O)c2[nH]c(-c3ccc(OCC(=O)Nc4ccc(OC)cc4)cc3)c(Cl)c2n(CCC)c1=O`, for which the inhibition turned out to be 45%.

In the case of `CCCn1c(=O)c2[nH]c(-c3ccc(OCC(=O)Nc4ccc(CS(=O)(=O)N5CCCC5)cc4)cc3)cc2n(CCC)c1=O`, the inhibition is 31%.

On to `Cn1c(=O)c2[nH]c(-c3ccc(OCC(=O)NC4CCc5ccccc54)cc3)cc2n(C)c1=O` (stereo unspecified), for which the inhibition turned out to be 20%.

Consider `CC(NC(=O)COc1ccc(-c2cc3c([nH]2)c(=O)n(C)c(=O)n3C)cc1)c1ccccc1` (stereo unspecified), for which the inhibition is 13%.

In the case of `Cn1c(=O)c2[nH]c(-c3ccc(OCC(=O)O)cc3)cc2n(C)c1=O`, the inhibition was 14%.

For the compound `COCCCn1c(=O)n(C)c(=O)c2[nH]c(-c3ccc(OCC(=O)O)cc3)cc21`, the inhibition is 11%.

As for `CCCn1c(=O)c2[nH]c(-c3ccc(OCC(=O)O)cc3)c(Br)c2n(CCC)c1=O`, the inhibition worked out at 11%.

With `CCOC(=O)COc1ccc(-c2cc3c([nH]2)c(=O)n(C)c(=O)n3CCCOC)cc1`, the inhibition is 5%.

For `CCn1c(=O)c2[nH]c(-c3ccc(OCC(=O)O)cc3)cc2n(CCCOC)c1=O`, the inhibition came to 20%.

With `CCCn1c(=O)n(C)c(=O)c2[nH]c(-c3ccc(OCC(=O)O)cc3)cc21`, the inhibition stood at 15%.

Take `CCCn1c(=O)c2[nH]c(-c3ccc(OCC(=O)O)cc3)cc2n(C)c1=O`: the inhibition is 21%.

Take `CCOC(=O)COc1ccc(-c2cc3c([nH]2)c(=O)n(CC)c(=O)n3CCCOC)cc1`: the inhibition was determined as 16%.

`CCCn1c(=O)c2[nH]c(-c3ccc(OC(C)C(=O)O)cc3)cc2n(CCC)c1=O` (stereo unspecified): the inhibition amounted to 8%.

Regarding `CCOC(=O)COc1ccc(-c2cc3c([nH]2)c(=O)n(C)c(=O)n3C)cc1`, the inhibition is 10%.

The target of a further assay is T2, Adenosine receptor A2b (Homo sapiens) (UniProt P29275).
T2 sequence (whole entry): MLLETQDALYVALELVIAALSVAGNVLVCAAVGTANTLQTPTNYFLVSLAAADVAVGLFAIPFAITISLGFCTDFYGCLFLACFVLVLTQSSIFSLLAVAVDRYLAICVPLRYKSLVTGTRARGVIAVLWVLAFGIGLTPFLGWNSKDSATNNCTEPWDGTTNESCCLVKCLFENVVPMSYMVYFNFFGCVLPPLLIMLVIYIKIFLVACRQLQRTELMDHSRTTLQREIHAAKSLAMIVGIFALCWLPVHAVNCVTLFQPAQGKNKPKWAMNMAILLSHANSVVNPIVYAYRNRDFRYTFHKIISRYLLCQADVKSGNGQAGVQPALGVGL
In words: Displacement of [3H]DPCPX from recombinant human adenosine A2B receptor expressed in HEK293 cells at 0.01 uM.
Take `CCCn1c(=O)c2[nH]c(-c3ccc(OCC(=O)Nc4ncccc4O)cc3)cc2n(CCC)c1=O`: the inhibition amounted to 37%.

On to `CCCn1c(=O)c2[nH]c(-c3ccc(OCC(=O)Nc4ccc(OC)cc4)cc3)c(Cl)c2n(CCC)c1=O`, for which the inhibition amounted to 15%.

`CCCn1c(=O)c2[nH]c(-c3ccc(OCC(=O)Nc4ccc(CS(=O)(=O)N5CCCC5)cc4)cc3)cc2n(CCC)c1=O`: the inhibition was 58%.

As to `Cn1c(=O)c2[nH]c(-c3ccc(OCC(=O)NC4CCc5ccccc54)cc3)cc2n(C)c1=O` (stereo unspecified), the inhibition was determined as 30%.

Turning to `CC(NC(=O)COc1ccc(-c2cc3c([nH]2)c(=O)n(C)c(=O)n3C)cc1)c1ccccc1` (stereo unspecified), the inhibition was 20%.

The next assay deals with T2, Adenosine receptor A2b (Homo sapiens). As to the kind of experiment: Displacement of [3H]DPCPX from recombinant human adenosine A2B receptor expressed in HEK293 cells at 0.1 uM. The class given is cell-based.
Turning to `CCCn1c(=O)c2[nH]c(-c3ccc(OCC(=O)Nc4ncccc4O)cc3)cc2n(CCC)c1=O`, the inhibition is 82%.

Consider `CCOC(=O)COc1ccc(-c2cc3c([nH]2)c(=O)n(C)c(=O)n3C)cc1OC`, for which the inhibition came to 8%.

On to `CCCn1c(=O)c2[nH]c(-c3ccc(OCC(=O)Nc4ccc(OC)cc4)cc3)c(Cl)c2n(CCC)c1=O`, for which the inhibition worked out at 70%.

On to `CCCn1c(=O)c2[nH]c(-c3ccc(OCC(=O)Nc4ccc(CS(=O)(=O)N5CCCC5)cc4)cc3)cc2n(CCC)c1=O`, for which the inhibition came out at 70%.

On to `Cn1c(=O)c2[nH]c(-c3ccc(OCC(=O)NC4CCc5ccccc54)cc3)cc2n(C)c1=O` (stereo unspecified), for which the inhibition is 74%.

In the case of `CC(NC(=O)COc1ccc(-c2cc3c([nH]2)c(=O)n(C)c(=O)n3C)cc1)c1ccccc1` (stereo unspecified), the inhibition is 63%.

Consider `Cn1c(=O)c2[nH]c(-c3ccc(OCC(=O)O)cc3)cc2n(C)c1=O`, for which the inhibition was 47%.

In the case of `COCCCn1c(=O)n(C)c(=O)c2[nH]c(-c3ccc(OCC(=O)O)cc3)cc21`, the inhibition is 35%.

As to `CCCn1c(=O)c2[nH]c(-c3ccc(OCC(=O)O)cc3)c(Br)c2n(CCC)c1=O`, the inhibition was 48%.

Take `CCOC(=O)COc1ccc(-c2cc3c([nH]2)c(=O)n(C)c(=O)n3CCCOC)cc1`: the inhibition was found to be 22%.

In the case of `CCn1c(=O)c2[nH]c(-c3ccc(OCC(=O)O)cc3)cc2n(CCCOC)c1=O`, the inhibition worked out at 66%.

Consider `CCCn1c(=O)n(C)c(=O)c2[nH]c(-c3ccc(OCC(=O)O)cc3)cc21`, for which the inhibition is 51%.

As for `CCCn1c(=O)c2[nH]c(-c3ccc(OCC(=O)O)cc3)cc2n(C)c1=O`, the inhibition is 63%.

For `CCOC(=O)COc1ccc(-c2cc3c([nH]2)c(=O)n(CC)c(=O)n3CCCOC)cc1`, the inhibition was determined as 57%.

For `CCCn1c(=O)c2[nH]c(-c3ccc(OC(C)C(=O)O)cc3)cc2n(CCC)c1=O` (stereo unspecified), the inhibition amounted to 44%.

With `CCOC(=O)COc1ccc(-c2cc3c([nH]2)c(=O)n(C)c(=O)n3C)cc1`, the inhibition stood at 25%.

The target of another assay is T3, Adenosine receptor A2b (Homo sapiens, UniProt P29275).
T3 sequence (P29275 whole entry): T2 sequence (whole entry)
Experiment: not given
The term Ki denotes the dissociation constant of the complex between target and ligand, obtained from inhibition or displacement. Read a low Ki as a stronger hold on the target. `CCCn1c(=O)c2[nH]c(-c3ccc(OCC(=O)Nc4ncccc4O)cc3)cc2n(CCC)c1=O`: the inhibition constant Ki is 20.9 nM.

Take `CCOC(=O)COc1ccc(-c2cc3c([nH]2)c(=O)n(C)c(=O)n3C)cc1OC`: the Ki is 1510 nM.

`CCCn1c(=O)c2[nH]c(-c3ccc(OCC(=O)Nc4ccc(OC)cc4)cc3)c(Cl)c2n(CCC)c1=O` gave a Ki of 27.5 nM.

Compound `CCCn1c(=O)c2[nH]c(-c3ccc(OCC(=O)Nc4ccc(CS(=O)(=O)N5CCCC5)cc4)cc3)cc2n(CCC)c1=O` gave a Ki of 7.76 nM.

Consider `Cn1c(=O)c2[nH]c(-c3ccc(OCC(=O)NC4CCc5ccccc54)cc3)cc2n(C)c1=O` (stereo unspecified), for which the Ki was 22.4 nM. Against the preceding compound, the Ki is about 2.9-fold higher.

For `CC(NC(=O)COc1ccc(-c2cc3c([nH]2)c(=O)n(C)c(=O)n3C)cc1)c1ccccc1` (stereo unspecified), the affinity, expressed as Ki, was 27.5 nM. The Ki values of the last two compounds are within 1.5-fold of each other.

`Cn1c(=O)c2[nH]c(-c3ccc(OCC(=O)O)cc3)cc2n(C)c1=O`: the affinity corresponds to a Ki of 123 nM.

In turn, `COCCCn1c(=O)n(C)c(=O)c2[nH]c(-c3ccc(OCC(=O)O)cc3)cc21` showed an inhibition constant Ki of 214 nM.

`CCCn1c(=O)c2[nH]c(-c3ccc(OCC(=O)O)cc3)c(Br)c2n(CCC)c1=O` gave a Ki of 79.4 nM.

`CCOC(=O)COc1ccc(-c2cc3c([nH]2)c(=O)n(C)c(=O)n3CCCOC)cc1` gave a Ki of 372 nM.

For the compound `CCn1c(=O)c2[nH]c(-c3ccc(OCC(=O)O)cc3)cc2n(CCCOC)c1=O`, the inhibition constant Ki is 72.4 nM.

Consider `CCCn1c(=O)n(C)c(=O)c2[nH]c(-c3ccc(OCC(=O)O)cc3)cc21`, for which the Ki is 45.7 nM. Against the preceding compound, the Ki is about 1.6-fold lower.

The compound `CCCn1c(=O)c2[nH]c(-c3ccc(OCC(=O)O)cc3)cc2n(C)c1=O` gave an inhibition constant (Ki) of 43.7 nM. This Ki and that of the compound before are within 1.5-fold of each other.

`CCOC(=O)COc1ccc(-c2cc3c([nH]2)c(=O)n(CC)c(=O)n3CCCOC)cc1` showed a Ki of 66.1 nM. This Ki lies about 1.5-fold higher than the previous one.

Compound `CCCn1c(=O)c2[nH]c(-c3ccc(OC(C)C(=O)O)cc3)cc2n(CCC)c1=O` (stereo unspecified) showed a Ki of 43.7 nM.

As for `CCOC(=O)COc1ccc(-c2cc3c([nH]2)c(=O)n(C)c(=O)n3C)cc1`, the Ki was 288 nM.

Compound `CCCn1c(=O)c2nc(-c3cc(OCC(=O)c4ccc(Br)cc4)n(C)n3)[nH]c2n(CCC)c1=O` yielded an inhibition constant Ki of over 1000 nM.

The next assay concerns the target T1, Adenosine receptor A2a.
Experiment: not given
`CCCn1c(=O)c2[nH]c(-c3ccc(OCC(=O)Nc4ncccc4O)cc3)cc2n(CCC)c1=O` gave an inhibition constant Ki of 324 nM. This lies in the sub-micromolar range.

`CCOC(=O)COc1ccc(-c2cc3c([nH]2)c(=O)n(C)c(=O)n3C)cc1OC` showed a Ki of 3720 nM.

`CCCn1c(=O)c2[nH]c(-c3ccc(OCC(=O)Nc4ccc(OC)cc4)cc3)c(Cl)c2n(CCC)c1=O` had a Ki of 44.7 nM. This Ki is about 83-fold lower than that of the compound before.

As to `CCCn1c(=O)c2[nH]c(-c3ccc(OCC(=O)Nc4ccc(CS(=O)(=O)N5CCCC5)cc4)cc3)cc2n(CCC)c1=O`, affinity was put at a Ki of 52.5 nM.

Regarding `Cn1c(=O)c2[nH]c(-c3ccc(OCC(=O)NC4CCc5ccccc54)cc3)cc2n(C)c1=O` (stereo unspecified), the Ki is 214 nM.

`CC(NC(=O)COc1ccc(-c2cc3c([nH]2)c(=O)n(C)c(=O)n3C)cc1)c1ccccc1` (stereo unspecified) gave an inhibition constant Ki of 245 nM.

Compound `Cn1c(=O)c2[nH]c(-c3ccc(OCC(=O)O)cc3)cc2n(C)c1=O` showed a Ki of 4170 nM.

`COCCCn1c(=O)n(C)c(=O)c2[nH]c(-c3ccc(OCC(=O)O)cc3)cc21` had an inhibitory constant (Ki) of 11500 nM.

`CCCn1c(=O)c2[nH]c(-c3ccc(OCC(=O)O)cc3)c(Br)c2n(CCC)c1=O`: the Ki is 490 nM.

`CCOC(=O)COc1ccc(-c2cc3c([nH]2)c(=O)n(C)c(=O)n3CCCOC)cc1` showed a Ki of 1860 nM. This Ki lies about 3.8-fold higher than the previous one.

`CCn1c(=O)c2[nH]c(-c3ccc(OCC(=O)O)cc3)cc2n(CCCOC)c1=O`: the Ki was 933 nM. This Ki lies about 2-fold lower than the previous one.

Compound `CCCn1c(=O)n(C)c(=O)c2[nH]c(-c3ccc(OCC(=O)O)cc3)cc21` gave a Ki of 776 nM. This Ki and that of the compound before are within 1.5-fold of each other.

Turning to `CCCn1c(=O)c2[nH]c(-c3ccc(OCC(=O)O)cc3)cc2n(C)c1=O`, the Ki was 4070 nM. Compared with the last compound, the Ki is about 5.2-fold higher.

Regarding `CCOC(=O)COc1ccc(-c2cc3c([nH]2)c(=O)n(CC)c(=O)n3CCCOC)cc1`, the Ki is 447 nM.

In the case of `CCCn1c(=O)c2[nH]c(-c3ccc(OC(C)C(=O)O)cc3)cc2n(CCC)c1=O` (stereo unspecified), the inhibitory constant (Ki) was 1000 nM.

For the compound `CCOC(=O)COc1ccc(-c2cc3c([nH]2)c(=O)n(C)c(=O)n3C)cc1`, the Ki is 1950 nM.

Regarding `CCCn1c(=O)c2nc(-c3cc(OCC(=O)c4ccc(Br)cc4)n(C)n3)[nH]c2n(CCC)c1=O`, the Ki was 93.3 nM.
